Results taken from patent US20250170114A1, “METHODS OF TREATMENT USING T-TYPE CALCIUM CHANNEL MODULATORS” (Praxis Precision Medicines, Inc., priority 2022, published 2025).

Tests used:
[1] = tested on: upper limb tremor in participants with ET; assay: Phase 2 trial in essential tremor (Part A, Part B OLT, Part B RWD): TETRAS performance subscale, ADL and mADL scores; assay type: in vivo, human; parameters: key to TETRAS ADL Randomization Baseline Mean: TETRAS ADL: 12 items each rated 0 to 4
Description: In some embodiments, the compound of Formula (I) or a pharmaceutically acceptable salt thereof (e.g., the HCl salt), when administered in combination with at least one of propranolol, primidone, topiramate, or a pharmaceutically acceptable salt thereof can reduce tremor severity by at least about 20% when measured by The Essential Tremor Rating Assessment Scale (TETRAS). The term “TETRAS” as used herein refers to a scale developed to quantify severity of ET and its impact on daily activities. It has an activities of daily living (ADL) section and a performance section. The ADL section has 12 items rated between 0 to 4, and the performance section has 9 items rated between 0 to 4. See, e.g., Elble, R. R., The Essential Tremor Rating Assessment Scale, J. Neurology Neuromed. 2016, 1(4):34-38. This multi-center clinical trial assessed the efficacy, safety, tolerability, and PK of the HCl salt compound of Formula (I) in participants aged 18 years of age or older who have had signs and symptoms consistent with ET for at least 3 years, with an onset before age 65. The clinical trial was conducted in 2 parts (Part A and Part B). Both parts consisted of 3 periods: Screening/Baseline, Intervention, and Safety Follow-up Periods. Part A of the clinical trial was open-label and assessed the safety and tolerability of the study drug, as well as the overall magnitude and pattern of change in ET severity. Daily dose levels of the HCl salt compound of Formula (I) were titrated from 20 mg (Day 1 to Day 7) to 40 mg (Days 8 to 14). Part B of the clinical trial consisted of both an open-label titration phase and a randomized, double-blind, placebo-controlled withdrawal phase. Part B assessed the safety and tolerability of the study drug, as well as the overall magnitude and pattern of change in ET severity and the duration of that effect. During the open-label titration phase, the daily dose levels of the HCl salt compound of Formula (I) were titrated from 20 mg (Days 1 to 3) to 40 mg (Days 4 to 7) to 60 mg (Days 8 to 14) to 80 mg (Days 15 to 21) to 100 mg (Days 22 to 28) to 120 mg (Days 29 to 42) or the highest tolerated dose. In the randomized, double-blind, placebo-controlled withdrawal phase, participants were either maintained on their final open-label dose or switched to placebo for an additional 14 days (Days 43 to 56). Part A. On Day 1, participants received a 20 mg dose of study drug, administered in the morning. Participants remained in a clinical setting under medical observation for approximately 6 hours. TETRAS Performance assessments were performed before dosing and 6 hours post-dose. After the first dose, participants continued QAM dosing at home after breakfast through Day 7. Participants returned to the clinic on Day 7 for efficacy testing at the 20 mg dose level. On Day 8, the dose increased to 40 mg QAM after breakfast through Day 14. Participants returned to the clinic on Day 14 for efficacy testing at the 40 mg dose level. Participants who agreed to optional additional PK sampling remained overnight in the clinic on Day 1, Day 7, and Day 14. Key safety measures included clinical laboratory evaluations, 12-lead ECG, C-SSRS, and vital signs. Key efficacy assessments included the TETRAS Performance subscale, TETRAS Upper Limb using accelerometry, CGI, and PGI-C. Blood samples were obtained for the determination of study drug plasma concentrations using a validated bioanalytical method and may also be used for method development and/or metabolite characterization. On Day 1, participants received a 20 mg dose of study drug on an empty stomach (at least 1 hour before breakfast). Participants remained in a clinical setting under medical observation for approximately 6 hours. TETRAS Performance assessments were performed before dosing and 6 hours (±2) post-dose. For dosing on Day 2 through Day 41, participants were instructed to dose QAM at least 1 hour before breakfast at home. Participants continued taking study drug 20 mg QAM at home through Day 3. […]

[2] = Phase 2 trial: study drug plasma concentrations; assay type: in vivo, human
Description: Key safety measures included clinical laboratory evaluations, 12-lead ECG, C-SSRS, and vital signs. Key efficacy assessments included the TETRAS Performance subscale, TETRAS Upper Limb using accelerometry, CGI, and PGI-C. Blood samples were obtained for the determination of study drug plasma concentrations using a validated bioanalytical method and may also be used for method development and/or metabolite characterization. In both phases, key safety measures included clinical laboratory evaluations, 12-lead ECG, C-SSRS, and vital signs. Key efficacy assessments included the TETRAS Performance subscale, TETRAS Upper Limb using accelerometry, CGI, PGI-C, TETRAS ADL Subscale, QUEST, BDI-II, and BAI. Blood samples were obtained for the determination of study drug and metabolite plasma concentrations.

[3] = tested on: harmaline-induced motor impairment in male SD rats; assay: Rotarod test with harmaline in SD rats; assay type: in vivo, rat; conditions: harmaline 30 mg/kg, dose of 3 and 10 mg/kg
Protocol: Each of six groups of male SD rats were subjected to a tremor assessment, followed by three ADL-like measures including open field test, rotarod test, and wire grip test after receiving doses of either vehicle, Formula (I), or propranolol, followed by either saline or harmaline, as outlined below in Table 22 below.
Fifteen minutes after the open field test, the rats were subjected to a rotarod test. The speed of the rotarod increased from 10 rpms to 60 rpms within the first five minutes of the test. FIG. 9 is a bar graph showing the mean of latency to fall in the rotarod test measured in rats that were administered 30 mg/kg harmaline and also administered 10 mg/kg propranolol or 1 mg/kg, 3 mg/kg or 10 mg/kg study drug.

[4] = Part B OLT, Day 7, N = 10, change from pre-dose baseline
[5] = Part B OLT, Day 21, N = 12, change from pre-dose baseline
[6] = Part B OLT, Day 42, 6 hours post-dose, N = 11, change from pre-dose baseline
[7] = Part B RWD, Day 56, study drug group N = 6, change from randomization baseline, last line of the cell group
[8] = Part B RWD, study drug group N = 6, Day 42 post-dose value

## CC(C)(C)NC(=O)CN1CCC(CNC(=O)c2cc(F)cc(Cl)c2)CC1.Cl [Study drug]
[1]; ET patients who were taking propranolol hydrochloride, phase 2 clinical trial
  response (e.g., reduced tremor symptoms) of ET patients: responded favorably
[1]; Part A, Day 21, after a 1-week washout period
  all TETRAS performance subscale-derived scores after washout: returned to near pre-dose baseline levels
[1]; [4]
  mADL (TETRAS modified total score) CTA LS Mean %: −18.49%
  mADL (TETRAS modified total score) Score CFB LS Mean: −2.862
[1]; [5]
  TETRAS CULS Score CFB LS Mean: 1.320
  mADL (TETRAS modified total score) CTA LS Mean %: −14.31%
  mADL (TETRAS modified total score) Score CFB LS Mean: −2.812
[1]; [6]
  mADL (TETRAS modified total score) CTA LS Mean %: −42.04%
  mADL (TETRAS modified total score) Score CFB LS Mean: −6.669
[1]; Part B RWD, Day 56
  TETRAS ADL LS Mean Difference: Study drug - Placebo (95% CI): −9.578 (−18.9020, −0.2546)
  TETRAS CULS LS Mean Difference: Study drug - Placebo (95% CI): −1.896 (−8.7365, 4.9451)
  TETRAS PSTS LS Mean Difference: Study drug - Placebo (95% CI): −3.025 (−11.2090, 5.1595)
  TETRAS ULS LS Mean Difference: Study drug - Placebo (95% CI): −0.253 (−4.9188, 4.4129)
  mADL LS Mean Difference: Study drug - Placebo (95% CI): −8.439 (−15.3856, −1.4916)
[1]; Part B RWD, Day 56, study drug group N = 6, change from randomization baseline
  mADL (TETRAS modified total score) LS Mean CFB: 1.350
[1]; [7]
  TETRAS ADL Mean CFB: 5.84
  mADL (TETRAS modified total score) Mean CFB: 8.45
[1]; Part B RWD, Day 56, listed as study drug
  mADL LS Mean Difference: Study drug - Placebo (95% CI): −8.439
[1]; Part B RWD, Day 70
  TETRAS ADL LS Mean Difference: Study drug - Placebo (95% CI): −5.988 (−16.8132, 4.8377)
  TETRAS CULS LS Mean Difference: Study drug - Placebo (95% CI): −0.964 (−6.5938, 4.6660)
  TETRAS PSTS LS Mean Difference: Study drug - Placebo (95% CI): −1.277 (−7.5286, 4.9741)
  TETRAS ULS LS Mean Difference: Study drug - Placebo (95% CI): −0.316 (−3.3765, 2.7441)
  mADL LS Mean Difference: Study drug - Placebo (95% CI): −3.236 (−12.3264, 5.8538)
[1]; Part B RWD, Day 70 (follow-up), study drug group N = 6, change from randomization baseline
  mADL (TETRAS modified total score) LS Mean CFB: 4.353
[1]; Part B RWD, Day 70 (follow-up), study drug group N = 6, change from randomization baseline, last line of the cell group
  TETRAS ADL Mean CFB: 18.73
[1]; [8]
  TETRAS ADL Randomization Baseline Mean: 22.17
  TETRAS CULS Randomization Baseline Mean: 19.33
  TETRAS PS Item 6: Archimedes Spiral (Left) Randomization Baseline Mean (SD): 1.75 (0.524)
  TETRAS PS Item 6: Archimedes Spiral (Right) Randomization Baseline Mean (SD): 1.75 (0.247)
  TETRAS PS Item 7: Handwriting Randomization Baseline Mean (SD): 1.75 (1.405)
  TETRAS PSTS Randomization Baseline Mean: 22.83
  TETRAS ULS Randomization Baseline Mean: 10.25
  mADL (TETRAS modified total score) Randomization Baseline Mean: 12.17
[1]; Part B, Day 70, after a 1-week washout period
  all TETRAS performance subscale-derived, TETRAS ADL-derived, and quality of life measures after washout: returned to near pre-dose baseline levels
[2]; 1-hour post-dose, all participants
  study drug plasma concentrations: Measurable
[2]; after 56 days of daily dosing and a 14-day washout period
  study drug plasma concentrations: undetectable
[2]; human, plasma, oral, 120 mg, Part B, Day 42, steady-state
  concentration at 42 day: 379 ng/mL
[2]; human, plasma, oral, Part B, Day 56
  concentration at 56 day: 344 ng/mL
[3]; listed as Formula (I)
  latency to fall in rotarod test vs vehicle and harmaline only: significantly attenuated
[3]; listed as compound of Formula (I)
  latency to fall in rotarod test vs vehicle and harmaline only: significant attenuation of motor impairment
